PMC6309587 (Anaerobe, 2018)

Experiments:
[1] = system: vanZ1 (CD1240) transcription in 630Δerm; assay: vanZ1 expression by qRT-PCR during growth in antimicrobials; type: cell-based, Clostridioides difficile
C. difficile 630Δerm = assay: Minimum inhibitory concentration; type: cell-based, Clostridioides difficile; settings: with or without LL-37 (Supl. Table 1)

Compound	increase of vanZ1 expression during growth in LL-37 [1]	teicoplanin MIC of 630Δerm whether or not LL-37 was present (C. difficile 630Δerm)
CC[C@H](C)[C@H](NC(=O)[C@H](CCCCN)NC(=O)[C@H](CCC(=O)O)NC(=O)[C@H](CCCCN)NC(=O)[C@H](CO)NC(=O)[C@H](CCCCN)NC(=O)[C@H](CCCNC(=N)N)NC(=O)[C@H](Cc1ccccc1)NC(=O)[C@H](Cc1ccccc1)NC(=O)[C@H](CC(=O)O)NC(=O)CNC(=O)[C@H](CC(C)C)NC(=O)[C@@H](N)CC(C)C)C(=O)NCC(=O)N[C@@H](CCCCN)C(=O)N[C@@H](CCC(=O)O)C(=O)N[C@@H](Cc1ccccc1)C(=O)N[C@@H](CCCCN)C(=O)N[C@@H](CCCNC(=N)N)C(=O)N[C@H](C(=O)N[C@H](C(=O)N[C@@H](CCC(N)=O)C(=O)N[C@@H](CCCNC(=N)N)C(=O)N[C@H](C(=O)N[C@@H](CCCCN)C(=O)N[C@@H](CC(=O)O)C(=O)N[C@@H](Cc1ccccc1)C(=O)N[C@@H](CC(C)C)C(=O)N[C@@H](CCCNC(=N)N)C(=O)N[C@@H](CC(N)=O)C(=O)N[C@@H](CC(C)C)C(=O)N[C@H](C(=O)N1CCC[C@H]1C(=O)N[C@@H](CCCNC(=N)N)C(=O)N[C@H](C(=O)N[C@@H](CCC(=O)O)C(=O)N[C@@H](CO)C(=O)O)[C@@H](C)O)C(C)C)[C@@H](C)CC)C(C)C)[C@@H](C)CC [LL-37]	~ 37 fold	
teicoplanin		remained unchanged
